Experimental data reported in US9139615B2, “High-affinity, dimeric inhibitors of PSD-95 as efficient neuroprotectants against ischemic brain damage and for treatment of pain” (University of Copenhagen, priority 2011, dated 2015).

Test: Spinal cord detection of fluorescent PSD-95 inhibitors
Assay type: in vivo, mice
Conditions: mouse, in vivo
Description: To investigate if AB143 and AB145 are able to enter spinal cord tissue, they were administered to the mice by intraperitoneal injection (30 mg/kg). The drug-treated mice were decapitated 30 min after injection, and the spinal cord was carefully dissected out, to which 5% trichloroacetic acid (TCA) (300 μL per 0.1 g tissue) was added and the tissue homogenized with an ultrasonic homogenizer (on ice). The homogenated tissue was vortexed and centrifuged for 10 min (20000 g at 4° C.). The supernatant was transferred to a test tube and evaporated, and the residue was reconstituted in water and its fluoresence intensity was determined by using a fluorescence plate reader (excitation/emission:470/525 nm). For quantification of the compounds, a standard curve was prepared by spiking a known amount of AB143 and AB145 into spinal cord tissue from control mice prior to homogenization, followed by work-up and analysis similar to the drug-treated mice.

| SMILES | ability to enter spinal cord tissue (concluded from fluorescent surrogates) |
| --- | --- |
| CC[C@H](C)[C@H](NC(=O)CCOCCOCCOCCOCCOCCOCCOCCC(=O)N[C@H](C(=O)N[C@@H](CCC(=O)O)C(=O)N[C@@H](CO)C(=O)N[C@@H](CC(=O)O)C(=O)N[C@H](C(=O)O)C(C)C)[C@@H](C)CC)C(=O)N[C@@H](CCC(=O)O)C(=O)N[C@@H](CO)C(=O)N[C@@H](CC(=O)O)C(=O)N[C@H](C(=O)O)C(C)C [AB122, PEG6(IESDV)2] | able to reach their target, PSD-95, in the spinal cord |
| CC[C@H](C)[C@H](NC(=O)CCOCCOCCOCCOCCOCCC(=O)N[C@H](C(=O)N[C@@H](CCC(=O)O)C(=O)N[C@@H](CO)C(=O)N[C@@H](CC(=O)O)C(=O)N[C@H](C(=O)O)C(C)C)[C@@H](C)CC)C(=O)N[C@@H](CCC(=O)O)C(=O)N[C@@H](CO)C(=O)N[C@@H](CC(=O)O)C(=O)N[C@H](C(=O)O)C(C)C [AB123, PEG4(IESDV)2] | able to reach their target, PSD-95, in the spinal cord |
| CC[C@H](C)[C@H](NC(=O)CCOCCOCCNCCOCCOCCC(=O)N[C@H](C(=O)N[C@@H](CCC(=O)O)C(=O)N[C@H](C(=O)N[C@@H](C)C(=O)N[C@H](C(=O)O)C(C)C)[C@@H](C)O)[C@@H](C)CC)C(=O)N[C@@H](CCC(=O)O)C(=O)N[C@H](C(=O)N[C@@H](C)C(=O)N[C@H](C(=O)O)C(C)C)[C@@H](C)O [AB141, NPEG4(IETAV)2] | able to reach their target, PSD-95, in the spinal cord |
